Results from patent US20240270762A1, “PENICILLIN-BINDING PROTEIN INHIBITORS” (priority 2021, published 2024).
In brackets after ≈: the same amount, converted by molar mass. Like-named read-outs stand apart in the source and are kept apart here.

Key:
[1] = target: T1, PBP3 from Acinetobacter baumannii (ATCC 19606) (Acinetobacter baumannii, UniProt A0ABX6CK25); assay: Bocillin-FL fluorescence polarization competition binding, A. baumannii PBP3; settings: fluorescence polarization competition binding assay using Bocillin-FL; read-out: A. baumannii PBP3 Potency
T1 sequence (A0ABX6CK25 64-610): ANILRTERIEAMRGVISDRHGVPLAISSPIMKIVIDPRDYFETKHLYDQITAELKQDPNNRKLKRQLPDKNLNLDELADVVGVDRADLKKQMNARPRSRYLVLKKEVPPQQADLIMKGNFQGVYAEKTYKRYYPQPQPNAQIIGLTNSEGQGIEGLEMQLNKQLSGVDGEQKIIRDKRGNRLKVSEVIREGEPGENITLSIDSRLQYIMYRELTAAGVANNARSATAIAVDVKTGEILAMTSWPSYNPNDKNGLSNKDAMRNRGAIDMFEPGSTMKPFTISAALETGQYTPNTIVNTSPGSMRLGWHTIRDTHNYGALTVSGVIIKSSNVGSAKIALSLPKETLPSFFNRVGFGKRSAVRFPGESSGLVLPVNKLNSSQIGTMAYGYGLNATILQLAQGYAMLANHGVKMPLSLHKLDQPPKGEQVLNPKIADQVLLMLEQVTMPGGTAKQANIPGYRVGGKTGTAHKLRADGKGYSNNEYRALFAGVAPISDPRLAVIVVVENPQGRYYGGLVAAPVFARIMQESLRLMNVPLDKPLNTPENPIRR
Method in brief: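 Purified PBPs pre-incubated with inhibitor (E. coli PBP3 1.5 μM, 30 min; P. aeruginosa PBP3 0.75 μM, A. baumannii PBP1a 1 μM and PBP3 0.2 μM, 15 min), then Bocillin-FL 0.1 μM (0.05 μM for PBP1a) added; FP read up to 60 min. EC50 = concentration halving bound Bocillin-FL.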

P. aeruginosa CDC-0095 = assay: microbe, parasite or virus in culture; format: cell-based; settings: Pseudomonas aeruginosa, CDC0095, read-out: Minimum inhibitory concentration, P. aeruginosa CDC-0095
A. baumannii 1258916 = assay: microbe, parasite or virus in culture; format: cell-based, Acinetobacter baumannii; settings: Acinetobacter baumannii, 1258916, read-out: MIC, A. baumannii 1258916
A. baumannii CDC-0036 = assay: microbe, parasite or virus in culture; format: cell-based; settings: Acinetobacter baumannii, CDC0036, read-out: MIC, A. baumannii CDC-0036
N. gonorrhoeae FA1090 = assay: Liquid broth MIC in Fastidious broth; settings: Neisseria gonorrhoeae
N. gonorrhoeae WHO G = assay: Liquid broth MIC in Fastidious broth; settings: Neisseria gonorrhoeae
N. gonorrhoeae WHO M = assay: Liquid broth MIC in Fastidious broth; settings: Neisseria gonorrhoeae
N. gonorrhoeae WHO K = assay: Liquid broth MIC in Fastidious broth; settings: Neisseria gonorrhoeae
N. gonorrhoeae WHO X = assay: Liquid broth MIC in Fastidious broth; settings: Neisseria gonorrhoeae
N. gonorrhoeae WHO Z = assay: Liquid broth MIC in Fastidious broth; settings: Neisseria gonorrhoeae
N. gonorrhoeae WHO Q = assay: Liquid broth MIC in Fastidious broth; settings: Neisseria gonorrhoeae
[2] = FA1090, read-out: Minimum Inhibitory Concentration (MIC), N. gonorrhoeae FA 1090
[3] = read-out: Minimum Inhibitory Concentration (MIC), N. gonorrhoeae WHO G
[4] = read-out: Minimum Inhibitory Concentration (MIC), N. gonorrhoeae WHO M
[5] = read-out: Minimum Inhibitory Concentration (MIC), N. gonorrhoeae WHO K
[6] = read-out: Minimum Inhibitory Concentration (MIC), N. gonorrhoeae WHO X
[7] = read-out: Minimum Inhibitory Concentration (MIC), N. gonorrhoeae WHO Z
[8] = read-out: Minimum Inhibitory Concentration (MIC), N. gonorrhoeae WHO Q
[9] = FA1090, read-out: Minimum Inhibitory Concentration, FA 1090
[10] = read-out: Minimum Inhibitory Concentration, WHO G
[11] = read-out: Minimum Inhibitory Concentration, WHO M
[12] = read-out: Minimum Inhibitory Concentration, WHO K
[13] = read-out: Minimum Inhibitory Concentration, WHO X
[14] = read-out: Minimum Inhibitory Concentration, WHO Z
[15] = read-out: Minimum Inhibitory Concentration, WHO Q

## CN(CCN1CCN(C(=O)N[C@@H](C(=O)N[C@H]2Cc3ccc(F)c(C(=O)O)c3OB2O)c2cc(F)c(O)c(O)c2Cl)C(=O)C1=O)Cc1cncc(O)c1 [Example 208, (R)-3-((R)-2-(2-chloro-5-fluoro-3,4-dihydroxyphenyl)-2-(4-(2-(((5-hydroxypyridin-3-yl)methyl)(methyl)amino)ethyl)-2,3-dioxopiperazine-1-carboxamido)acetamido)-7-fluoro-2-hydroxy-3,4-dihydro-2H-benzo[e][1,2]oxaborinine-8-carboxylic acid]
[1]
  IC50: < 10 µM
P. aeruginosa CDC-0095
  MIC: < 1 µg/mL
A. baumannii 1258916
  MIC: < 1 µg/mL
A. baumannii CDC-0036
  MIC: 2 to 4 µg/mL (≈ 2.68 to 5.36 µM)
N. gonorrhoeae FA1090; [2]
  MIC: 1 to 2 µg/mL (≈ 1.34 to 2.68 µM)
N. gonorrhoeae WHO G; [3]
  MIC: 4 to 8 µg/mL (≈ 5.36 to 10.7 µM)
N. gonorrhoeae WHO M; [4]
  MIC: 4 to 8 µg/mL (≈ 5.36 to 10.7 µM)
N. gonorrhoeae WHO K; [5]
  MIC: 16 to 32 µg/mL (≈ 21.4 to 42.8 µM)
N. gonorrhoeae WHO X; [6]
  MIC: > 64 µg/mL
N. gonorrhoeae WHO Z; [7]
  MIC: 16 to 32 µg/mL (≈ 21.4 to 42.8 µM)
N. gonorrhoeae WHO Q; [8]
  MIC: 16 to 32 µg/mL (≈ 21.4 to 42.8 µM)

## O=C(NCCN1CCN(C(=O)NC(C(=O)N[C@H]2Cc3ccc(F)c(C(=O)O)c3OB2O)c2cc(F)c(O)c(O)c2Cl)C(=O)C1=O)c1ccncc1 (stereo partly drawn) [Example 216, (3R)-3-(2-(2-chloro-5-fluoro-3,4-dihydroxyphenyl)-2-(4-(2-(isonicotinamido)ethyl)-2,3-dioxopiperazine-1-carboxamido)acetamido)-7-fluoro-2-hydroxy-3,4-dihydro-2H-benzo[e][1,2]oxaborinine-8-carboxylic acid]
[1]
  IC50: < 10 µM
P. aeruginosa CDC-0095
  MIC: 8 to 16 µg/mL (≈ 10.9 to 21.9 µM)
A. baumannii 1258916
  MIC: 2 to 4 µg/mL (≈ 2.74 to 5.47 µM)
A. baumannii CDC-0036
  MIC: 8 to 16 µg/mL (≈ 10.9 to 21.9 µM)
N. gonorrhoeae FA1090; [2]
  MIC: 4 to 8 µg/mL (≈ 5.47 to 10.9 µM)
N. gonorrhoeae WHO G; [3]
  MIC: 4 to 8 µg/mL (≈ 5.47 to 10.9 µM)
N. gonorrhoeae WHO M; [4]
  MIC: 4 to 8 µg/mL (≈ 5.47 to 10.9 µM)
N. gonorrhoeae WHO K; [5]
  MIC: > 64 µg/mL
N. gonorrhoeae WHO X; [6]
  MIC: > 64 µg/mL
N. gonorrhoeae WHO Z; [7]
  MIC: 16 to 32 µg/mL (≈ 21.9 to 43.8 µM)
N. gonorrhoeae WHO Q; [8]
  MIC: 16 to 32 µg/mL (≈ 21.9 to 43.8 µM)

## O=C(O)c1c(F)ccc2c1OB(O)[C@@H](NC(=O)C(NC(=O)N1CCN(S(=O)(=O)CCCNC(=O)[C@@H]3CCCN3)C1=O)c1cc(F)c(O)c(O)c1Cl)C2 (stereo partly drawn) [Example 275, (3R)-3-(2-(2-chloro-5-fluoro-3,4-dihydroxyphenyl)-2-(2-oxo-3-((3-((S)-pyrrolidine-2-carboxamido)propyl)sulfonyl)imidazolidine-1-carboxamido)acetamido)-7-fluoro-2-hydroxy-3,4-dihydro-2H-benzo[e][1,2]oxaborinine-8-carboxylic acid]
[1]
  IC50: < 10 µM
P. aeruginosa CDC-0095
  MIC: 8 to 16 µg/mL (≈ 10.4 to 20.7 µM)
A. baumannii 1258916
  MIC: < 1 µg/mL
A. baumannii CDC-0036
  MIC: 2 to 4 µg/mL (≈ 2.59 to 5.18 µM)
N. gonorrhoeae FA1090; [9]
  MIC: 4 to 8 µg/mL (≈ 5.18 to 10.4 µM)
N. gonorrhoeae WHO G; [10]
  MIC: 16 to 32 µg/mL (≈ 20.7 to 41.4 µM)
N. gonorrhoeae WHO M; [11]
  MIC: 16 to 32 µg/mL (≈ 20.7 to 41.4 µM)
N. gonorrhoeae WHO K; [12]
  MIC: > 64 µg/mL
N. gonorrhoeae WHO X; [13]
  MIC: > 64 µg/mL
N. gonorrhoeae WHO Z; [14]
  MIC: 16 to 32 µg/mL (≈ 20.7 to 41.4 µM)
N. gonorrhoeae WHO Q; [15]
  MIC: 16 to 32 µg/mL (≈ 20.7 to 41.4 µM)

## O=C(CN1CCN(C(=O)NC(C(=O)N[C@H]2Cc3ccc(F)c(C(=O)O)c3OB2O)c2cc(F)c(O)c(O)c2Cl)C(=O)C1=O)NCc1ccccc1 (stereo partly shown) [Example 238]
[1]
  IC50: < 10 µM
P. aeruginosa CDC-0095
  MIC: 2 to 4 µg/mL (≈ 2.74 to 5.48 µM)
A. baumannii 1258916
  MIC: 2 to 4 µg/mL (≈ 2.74 to 5.48 µM)
A. baumannii CDC-0036
  MIC: 8 to 16 µg/mL (≈ 11 to 21.9 µM)
N. gonorrhoeae FA1090; [2]
  MIC: 1 to 2 µg/mL (≈ 1.37 to 2.74 µM)
N. gonorrhoeae WHO G; [3]
  MIC: 4 to 8 µg/mL (≈ 5.48 to 11 µM)
N. gonorrhoeae WHO M; [4]
  MIC: 4 to 8 µg/mL (≈ 5.48 to 11 µM)
N. gonorrhoeae WHO K; [5]
  MIC: > 64 µg/mL
N. gonorrhoeae WHO X; [6]
  MIC: > 64 µg/mL
N. gonorrhoeae WHO Z; [7]
  MIC: 16 to 32 µg/mL (≈ 21.9 to 43.8 µM)
N. gonorrhoeae WHO Q; [8]
  MIC: > 64 µg/mL

## O=C(NCCCN1CCN(C(=O)N[C@@H](C(=O)N[C@H]2Cc3ccc(F)c(C(=O)O)c3OB2O)c2cc(F)c(O)c(O)c2Cl)C1=O)c1ccccc1 [Example 253, (R)-3-((R)-2-(3-(3-benzamidopropyl)-2-oxoimidazolidine-1-carboxamido)-2-(2-chloro-5-fluoro-3,4-dihydroxyphenyl)acetamido)-7-fluoro-2-hydroxy-3,4-dihydro-2H-benzo[e][1,2]oxaborinine-8-carboxylic acid]
[1]
  IC50: < 10 µM
P. aeruginosa CDC-0095
  MIC: 2 to 4 µg/mL (≈ 2.79 to 5.59 µM)
A. baumannii 1258916
  MIC: < 1 µg/mL
A. baumannii CDC-0036
  MIC: < 1 µg/mL
N. gonorrhoeae FA1090; [9]
  MIC: 1 to 2 µg/mL (≈ 1.4 to 2.79 µM)
N. gonorrhoeae WHO G; [10]
  MIC: 16 to 32 µg/mL (≈ 22.4 to 44.7 µM)
N. gonorrhoeae WHO M; [11]
  MIC: 4 to 8 µg/mL (≈ 5.59 to 11.2 µM)
N. gonorrhoeae WHO K; [12]
  MIC: > 64 µg/mL
N. gonorrhoeae WHO X; [13]
  MIC: > 64 µg/mL
N. gonorrhoeae WHO Z; [14]
  MIC: 16 to 32 µg/mL (≈ 22.4 to 44.7 µM)
N. gonorrhoeae WHO Q; [15]
  MIC: 16 to 32 µg/mL (≈ 22.4 to 44.7 µM)
